According to patent US11479802B2, “Assays for screening activity of modulators of members of the hydroxy steroid (17-beta) dehydrogenase (HSD17B) family” (Regeneron Pharmaceuticals, Inc., priority 2017, dated 2022):
Structures can show the parent of a compound that is named as a salt.

Molecular target: T1, human HSD17B13 (Homo sapiens, UniProt Q7Z5P4)
T1 sequence (Q7Z5P4 20-300): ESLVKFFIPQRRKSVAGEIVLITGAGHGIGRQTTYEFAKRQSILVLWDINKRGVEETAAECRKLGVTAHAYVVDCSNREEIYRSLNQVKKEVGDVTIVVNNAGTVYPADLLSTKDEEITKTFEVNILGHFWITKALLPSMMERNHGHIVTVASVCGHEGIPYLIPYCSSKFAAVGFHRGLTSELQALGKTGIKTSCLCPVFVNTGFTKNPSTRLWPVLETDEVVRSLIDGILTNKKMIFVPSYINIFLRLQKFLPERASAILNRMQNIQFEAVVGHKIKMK
Assay: Substrate screening of steroid and bioactive lipid libraries against purified recombinant HSD17B13 (NADH-linked luciferase assay)
Format: biochemical
Details: for HSD17B13 Enzymatic Activity Relative Light Units: 500 μM NAD+, 100 ng enzyme, 3 hours at 23° C.; for HSD17B13 Enzymatic Activity Percent Estradiol Control: normalized to 50 μM estradiol after subtraction of 5% DMSO
In short: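 Recombinant human HSD17B13 (100 ng) incubated 3 h at 23° C in 0.2 M Tris-HCl pH 7.5 with 500 μM NAD+ and 5 μM bioactive lipid or 50 μM steroid (5% DMSO). NADH measured by luciferase luminescence after 1 h; values as percent of 50 μM estradiol control after 5% DMSO subtraction.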

[1] = Bioactive Lipid Library, 5 μM bioactive lipid (Estradiol Control 50 μM)
[2] = Bioactive Lipid Library, 5 μM bioactive lipid

Row | Compound | HSD17B13 Enzymatic Activity Relative Light Units [1] | HSD17B13 Enzymatic Activity Percent Estradiol Control [2] | HSD17B13 Enzymatic Activity Relative Light Units (Steroid Library, 50 μM steroid) | HSD17B13 Enzymatic Activity Percent Estradiol Control (Steroid Library, 50 μM steroid)
1 | CCCCC/C=C\C\C=C/C=C/C=C/[C@@H](SC[C@H](NC(=O)CC[C@@H](N)C(=O)O)C(=O)O)[C@@H](O)CCCC(=O)O [Leukotriene F4] | 400400 RLU | 9.27% |  | 
2 | CC/C=C\C/C=C\C=C\C(O)C/C=C\C/C=C\CCCC(=O)O (racemic) [(±)11-HEPE] | 791920 RLU | 37.56% |  | 
3 | CCCCC[C@H](O)/C=C/C=C\C=C\C=C\[C@H](O)[C@@H](O)CCCC(=O)O [6(S)-Lipoxin A4] | 383000 RLU | 7.90% |  | 
4 | CCCCC/C=C\C/C=C\C/C=C\CC1OC1CCCC(=O)O (racemic) [(±)5(6)-EET] | 360960 RLU | 5.51% |  | 
5 | O=P(O)(O)O[C@@H]1[C@H](OP(=O)(O)O)[C@H](OP(=O)(O)O)[C@@H](O)[C@H](O)[C@H]1OP(=O)(O)O [D-myo-Inositol-1,2,3,6-tetraphosphate (sodium salt)] | 424280 RLU | 7.49% |  | 
6 | CC/C=C\C[C@H](O)/C=C/[C@H]1[C@H](O)CC(=O)[C@@H]1C/C=C\CCCC(=O)O [Prostaglandin E3] | 379960 RLU | 7.66% |  | 
7 | O=P(O)(O)O[C@@H]1[C@H](O)[C@H](O)[C@@H](OP(=O)(O)O)[C@H](OP(=O)(O)O)[C@H]1O [D-myo-Inositol-1,4,5-triphosphate (potassium salt)] | 358400 RLU | 2.52% |  | 
8 | CCCCC[C@H](O)/C=C/[C@@H]1[C@@H](C/C=C\CCCC(=O)NCCCCCNC(=O)CCCC[C@H]2SC[C@@H]3NC(=O)N[C@@H]32)[C@@H](O)C[C@H]1O [Prostaglandin F2α-biotin] | 340200 RLU | 1.14% |  | 
9 | CC/C=C\C/C=C\C/C=C\C/C=C\CC(O)/C=C/C=C\CCC(=O)O (racemic) [(±)8-HDHA] | 773120 RLU | 36.16% |  | 
10 | CCCCC[C@@H](O)/C=C/C=C\CCCCCCCC(=O)O [13(R)-HODE] | 1105960 RLU | 60.91% |  | 
11 | C[C@]12CC[C@@H](O)C[C@@H]1CC[C@@H]1[C@@H]2[C@@H](O)C[C@]2(C)C(=O)CC[C@@H]12 [11beta-Hydroxyandrosterone] |  |  | 224720 RLU | 1.12%
12 | O=C(O)CCCC/C=C\C[C@@H](O)/C=C/C=C/C=C\[C@@H](O)CCCC(=O)O [20-carboxy Leukotriene B4] | 400440 RLU | 9.28% |  | 
13 | CCCCCC(=O)/C=C/[C@H]1C(O)CC(=O)[C@H]1C/C=C\CCCC(=O)O (some centres unmarked) [8-iso-15-keto Prostaglandin E2] | 262160 RLU | −1.65% |  | 
14 | CCCCC/C=C\C=C\[C@@H](O)C/C=C\C/C=C\CCCC(=O)O [11(S)-HETE] | 696400 RLU | 30.46% |  | 
15 | CCCCC/C=C\C/C=C\C[C@@H](O)/C=C/C=C\CCCC(=O)O [9(R)-HETE] | 1656640 RLU | 101.86% |  | 
16 | CCCCC[C@H](O)/C=C/[C@H]1C(=O)CC(=O)[C@@H]1CCCCCCC(=O)O [Prostaglandin K1] | 223160 RLU | −4.74% |  | 
17 | CCCCC[C@@H](O)/C=C/C=C\CCCCCCCCCC(=O)O [15(R)-HEDE] | 1862960 RLU | 117.20% |  | 
18 | CC[C@H]1O[C@H]1C/C=C\C/C=C\C/C=C\C/C=C\C/C=C\CCC(=O)O (racemic) [(±)19(20)-EpDPA] | 300600 RLU | 1.38% |  | 
19 | C[C@]12Cc3c[nH]nc3C[C@@H]1CC[C@@H]1[C@@H]2CC[C@@]2(C)[C@H]1CC[C@]2(C)O [Stanazol] |  |  | 140840 RLU | −0.35%
20 | CCCCC/C=C\C[C@@H]1[C@H](/C=C/C(O)CCCC(=O)O)[C@@H](O)C[C@H]1O (stereo partly drawn) [5-iPF2α-VI] | 293200 RLU | 0.80% |  | 
21 | CC/C=C\C[C@H](O)/C=C/C=C\CCCCCCCC(=O)O [13(S)-HOTrE] | 528240 RLU | 17.95% |  | 
22 | C=CCc1ccc(O)c(-c2ccc(O)c(CC=C)c2)c1 [Honokiol] |  |  | 52920 RLU | −1.88%

Row | Compound | HSD17B13 Enzymatic Activity Relative Light Units [1] | HSD17B13 Enzymatic Activity Percent Estradiol Control [2] | HSD17B13 Enzymatic Activity Relative Light Units (Steroid Library, 50 μM steroid) | HSD17B13 Enzymatic Activity Percent Estradiol Control (Steroid Library, 50 μM steroid)
23 | D-myo-Inositol-1,2,3,4-tetraphosphate (sodium salt) | 447960 RLU | 9.28% |  | 
24 | CCCCCC(=O)/C=C/C=C\CCCCCCCCCC(=O)O [15-OxoEDE] | 261480 RLU | −1.88% |  | 
25 | CCCCC/C=C\C/C=C\C/C=C\CC#CCCCC(=O)O [5,6-dehydro Arachidonic Acid] | 210160 RLU | −8.68% |  | 
26 | Ptdlns-(3)-P1 (1,2-dioctanoyl) (sodium salt) | 319680 RLU | −0.40% |  | 
27 | CCCCCC=CCC=CCC=CCC(O)C(O)CCCC(=O)O (racemic) [(±)5(6)-DiHET] | 353120 RLU | 4.93% |  | 
28 | CC[C@H](CC[C@@H](C)[C@H]1CC[C@H]2[C@@H]3CC=C4C[C@@H](O)CC[C@]4(C)[C@H]3CC[C@]12C)C(C)C [Beta-sitosterol] |  |  | 168880 RLU | 0.14%
29 | CN(C)C(=O)CCSC(SCCC(=O)O)c1cccc(/C=C/c2ccc3ccc(Cl)cc3n2)c1 (centres unmarked) [MK-571] | 281520 RLU | −0.12% |  | 
30 | CC/C=C\C/C=C\C=C\C(O)C/C=C\C/C=C\C/C=C\CCC(=O)O (racemic) [(±)13-HDHA] | 1154720 RLU | 64.54% |  | 
31 | CCCCCCCC/C=C(\CCCCCCCC(=O)O)[N+](=O)[O-] [9-Nitrooleate] | 31600 RLU | −22.16% |  | 
32 | CCCCCCCC[C@@H](O)C=CC=CC=C[C@@H](O)CCCC(=O)O [12-epi Leukotriene B3] | 481880 RLU | 15.71% |  | 
33 | CCCCC/C=C\C[C@@H](O)/C=C/C=C/C=C\[C@@H](O)CCCC(=O)N(C)C [Leukotriene B4 dimethyl amide] | 1910040 RLU | 128.60% |  | 
34 | O=C(O)CCC/C=C\C[C@@H]1[C@@H](/C=C/[C@@H](O)COc2ccc(I)cc2)[C@H]2CC[C@@H]1O2 [I-BOP] | 358960 RLU | 6.00% |  | 
35 | CCCCC/C=C\C=C\[C@H](O)C/C=C\C/C=C\CCCC(=O)O [11(R)-HETE] | 1064120 RLU | 57.80% |  | 
36 | C[C@]12C[C@H]3S[C@H]3C[C@@H]1CC[C@@H]1[C@@H]2CC[C@@]2(C)[C@H]1CC[C@@]2(C)O [(2a,3a,52,17b)-Androstan-17ol,2,3-epithio-17-methyl] |  |  | 100160 RLU | −1.06%
37 | C[C@]12C=CC(=O)C=C1CC[C@@H]1[C@@H]2C(=O)C[C@@]2(C)[C@H]1CC[C@]2(O)C(=O)CO [Prednisone] |  |  | 196720 RLU | 0.63%
38 | O=P(O)(O)OC1[C@H](O)[C@H](OP(=O)(O)O)C(OP(=O)(O)O)[C@H](OP(=O)(O)O)[C@H]1O (stereo partly drawn) [D-myo-Inositol-1,3,4,5-tetraphosphate (sodium salt)] | 358920 RLU | 2.56% |  | 
39 | C[C@]12CC[C@H](O)CC1=CC[C@@H]1[C@@H]2CC[C@]2(C)C(=O)CC[C@@H]12 [Dehydroepiandrosterone] |  |  | 196240 RLU | 0.62%
40 | C[C@]12CCC(=O)C=C1CC[C@@H]1[C@@H]2CC[C@]2(C)C(=O)CC[C@@H]12 [Androstenedione] |  |  | 172400 RLU | 0.21%
41 | Prostaglandin D2-biotin | 367880 RLU | 3.24% |  | 
42 | CCCCC[C@@H](O)/C=C/C=C\C/C=C\C/C=C\CCCC(=O)O [15(R)-HETE] | 701120 RLU | 61.00% |  | 
43 | CCCCC/C=C\C[C@@H](O)/C=C/C=C\C/C=C\CCCC(=O)O [12(R)-HETE] | 1932320 RLU | 122.36% |  | 
